# Key:
# [1] = target: Voltage-gated inwardly rectifying potassium channel KCNH2 (Homo sapiens, UniProt Q12809)
# Description: Inhibition of human ERG expressed in HEK293 cells by manual-patch clamp assay
# [2] = MRT (0 to t) in Beagle dog at 5 mg/kg, po administered as single dose measured upto 24 hrs by LC-MS/MS analysis; format: ADME, organism-based, Canis lupus familiaris; details: in vivo
# [3] = target: Sodium channel protein type 5 subunit alpha (Homo sapiens, UniProt Q14524)
# Description: Inhibition of human Nav1.5 by manual-patch clamp assay
# in vitro [4] = details: human, HepG2 cells
# Description: Mitotoxicity in human HepG2 cells incubated for 2 hrs by Celltiter-Glo assay
# in vitro [5] = details: dog, liver microsomes
# [6] = Drug metabolism in rat hepatocytes assessed as glycine conjugation metabolite at 10 uM measured upto 240 mins by LC-MS/MS analysis; format: ADME, cell-based, Hepatocyte; details: 4 h
# PXR = target: T1, PXR (Homo sapiens, UniProt O75469); assay: in vitro
# T1 sequence (O75469 whole entry): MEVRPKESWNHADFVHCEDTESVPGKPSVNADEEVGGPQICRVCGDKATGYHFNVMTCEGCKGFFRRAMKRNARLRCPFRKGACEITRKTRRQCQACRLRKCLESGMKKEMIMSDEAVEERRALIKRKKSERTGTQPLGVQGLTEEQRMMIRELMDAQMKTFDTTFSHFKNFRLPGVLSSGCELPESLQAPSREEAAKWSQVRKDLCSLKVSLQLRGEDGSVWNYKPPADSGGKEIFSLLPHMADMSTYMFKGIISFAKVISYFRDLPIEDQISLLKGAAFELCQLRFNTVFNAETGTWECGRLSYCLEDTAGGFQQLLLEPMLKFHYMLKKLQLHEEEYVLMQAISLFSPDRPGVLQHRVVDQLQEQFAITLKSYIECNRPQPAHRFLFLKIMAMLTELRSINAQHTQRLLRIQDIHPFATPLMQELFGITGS
# Description: Activation of PXR (unknown origin) at 30 uM relative to control
# in vivo = details: Sprague-Dawley, rat, liver/plasma, po, 10 mg/kg
# Description: Ratio of drug concentration in Sprague-Dawley rat liver to plasma at 10 mg/kg, po administered as single dose measured upto 24 hrs by LC-MS/MS analysis
# [7] = Oral bioavailability in Sprague-Dawley rat at 10 mg/kg administered as single dose measured upto 24 hrs by LC-MS/MS analysis; format: ADME, organism-based; details: in vivo
# Cytochrome P450 2D6 = Cytochrome P450 2D6 (Homo sapiens, UniProt P10635); assay: Time dependent inhibition of CYP2D6 in human liver microsomes at 10 uM preincubated for 30 mins followed by substrate addition and measured after 15 mins in presence of NADPH by LC-MS/MS analysis; format: ADME, Microsome
# Cytochrome P450 2D6, sequence (P10635 whole entry): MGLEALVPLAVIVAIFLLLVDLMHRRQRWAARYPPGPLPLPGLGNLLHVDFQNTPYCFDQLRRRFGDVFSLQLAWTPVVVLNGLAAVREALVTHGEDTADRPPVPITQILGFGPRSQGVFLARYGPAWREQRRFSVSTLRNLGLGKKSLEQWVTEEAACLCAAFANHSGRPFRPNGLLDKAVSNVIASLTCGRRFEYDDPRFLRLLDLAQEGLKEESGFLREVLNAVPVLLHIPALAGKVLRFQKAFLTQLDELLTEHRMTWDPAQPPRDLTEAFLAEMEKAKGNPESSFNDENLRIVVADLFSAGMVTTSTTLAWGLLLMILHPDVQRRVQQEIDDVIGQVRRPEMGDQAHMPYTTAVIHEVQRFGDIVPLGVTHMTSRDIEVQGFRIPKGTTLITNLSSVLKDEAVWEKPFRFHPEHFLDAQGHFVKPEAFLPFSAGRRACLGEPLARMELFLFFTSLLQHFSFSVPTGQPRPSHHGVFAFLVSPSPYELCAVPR
# [8] = Drug metabolism in monkey hepatocytes assessed as oxidation/hydrogenation/decarboxylation metabolite at 10 uM measured upto 240 mins by LC-MS/MS analysis; format: ADME, cell-based, Macaca mulatta, Hepatocyte; details: rhesus monkey, 4 h
# HepG2 = assay: cells; details: Homo sapiens, HepG2, 3 h
# Description: Antiproliferative activity against human HepG2 cells incubated for 3 hrs by LC-MS analysis
# [9] = Elimination half life in Beagle dog at 1 mg/kg, iv administered as single dose measured upto 24 hrs by LC-MS/MS analysis; format: ADME, organism-based, Canis lupus familiaris; details: in vivo, read-out: beta t1/2 (converted)
# Sodium channel protein type 5 subunit alpha, sequence (Q14524 whole entry): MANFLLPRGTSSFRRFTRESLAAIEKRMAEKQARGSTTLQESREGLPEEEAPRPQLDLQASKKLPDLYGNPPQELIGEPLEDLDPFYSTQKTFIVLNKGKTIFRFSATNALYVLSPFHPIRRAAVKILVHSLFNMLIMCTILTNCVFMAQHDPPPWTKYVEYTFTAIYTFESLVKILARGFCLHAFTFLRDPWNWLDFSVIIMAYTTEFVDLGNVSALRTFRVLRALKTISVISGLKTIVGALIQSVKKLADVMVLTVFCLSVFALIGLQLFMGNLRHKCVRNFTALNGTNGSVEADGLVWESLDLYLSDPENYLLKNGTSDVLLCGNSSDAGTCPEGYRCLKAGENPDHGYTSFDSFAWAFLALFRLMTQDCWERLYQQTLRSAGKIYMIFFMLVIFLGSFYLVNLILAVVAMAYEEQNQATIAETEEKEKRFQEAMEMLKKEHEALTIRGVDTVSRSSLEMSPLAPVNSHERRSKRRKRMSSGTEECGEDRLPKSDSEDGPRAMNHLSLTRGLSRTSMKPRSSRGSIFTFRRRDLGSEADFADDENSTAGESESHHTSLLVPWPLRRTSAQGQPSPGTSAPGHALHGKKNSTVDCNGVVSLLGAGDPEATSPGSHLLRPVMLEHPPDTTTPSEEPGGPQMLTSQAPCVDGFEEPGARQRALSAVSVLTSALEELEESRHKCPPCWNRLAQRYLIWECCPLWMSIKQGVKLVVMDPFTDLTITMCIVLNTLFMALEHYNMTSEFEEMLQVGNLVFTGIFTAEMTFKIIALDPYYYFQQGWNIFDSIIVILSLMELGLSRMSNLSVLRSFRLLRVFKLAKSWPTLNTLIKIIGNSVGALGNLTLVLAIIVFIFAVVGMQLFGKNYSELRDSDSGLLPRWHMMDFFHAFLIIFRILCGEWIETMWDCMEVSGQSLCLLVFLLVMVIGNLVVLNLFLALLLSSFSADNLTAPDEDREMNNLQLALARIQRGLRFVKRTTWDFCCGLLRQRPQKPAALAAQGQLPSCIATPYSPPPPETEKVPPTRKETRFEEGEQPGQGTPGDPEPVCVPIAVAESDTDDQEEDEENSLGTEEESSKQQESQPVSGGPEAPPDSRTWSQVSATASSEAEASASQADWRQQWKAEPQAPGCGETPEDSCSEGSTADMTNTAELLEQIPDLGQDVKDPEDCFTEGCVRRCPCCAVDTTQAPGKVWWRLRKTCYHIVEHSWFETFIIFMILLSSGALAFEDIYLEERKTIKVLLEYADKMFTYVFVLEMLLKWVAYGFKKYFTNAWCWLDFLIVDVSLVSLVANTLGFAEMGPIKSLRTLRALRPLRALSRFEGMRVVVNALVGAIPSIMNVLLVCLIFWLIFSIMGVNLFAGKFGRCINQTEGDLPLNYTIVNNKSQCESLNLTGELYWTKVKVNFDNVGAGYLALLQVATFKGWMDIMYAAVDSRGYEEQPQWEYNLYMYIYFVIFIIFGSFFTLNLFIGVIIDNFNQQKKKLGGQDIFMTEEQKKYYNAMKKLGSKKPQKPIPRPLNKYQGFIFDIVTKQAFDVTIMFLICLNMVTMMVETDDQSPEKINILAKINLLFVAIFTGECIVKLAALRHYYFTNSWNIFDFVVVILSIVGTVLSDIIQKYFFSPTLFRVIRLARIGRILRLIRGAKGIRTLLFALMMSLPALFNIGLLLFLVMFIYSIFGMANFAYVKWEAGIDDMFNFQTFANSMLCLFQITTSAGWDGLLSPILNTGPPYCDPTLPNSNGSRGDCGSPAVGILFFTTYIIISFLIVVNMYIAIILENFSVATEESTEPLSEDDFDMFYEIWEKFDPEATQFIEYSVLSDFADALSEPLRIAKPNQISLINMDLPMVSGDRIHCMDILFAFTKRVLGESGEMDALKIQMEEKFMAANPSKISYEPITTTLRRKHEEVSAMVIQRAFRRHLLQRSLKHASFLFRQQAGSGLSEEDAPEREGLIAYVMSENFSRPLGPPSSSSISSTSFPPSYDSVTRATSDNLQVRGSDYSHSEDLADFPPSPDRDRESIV
# Voltage-gated inwardly rectifying potassium channel KCNH2, sequence (Q12809 whole entry): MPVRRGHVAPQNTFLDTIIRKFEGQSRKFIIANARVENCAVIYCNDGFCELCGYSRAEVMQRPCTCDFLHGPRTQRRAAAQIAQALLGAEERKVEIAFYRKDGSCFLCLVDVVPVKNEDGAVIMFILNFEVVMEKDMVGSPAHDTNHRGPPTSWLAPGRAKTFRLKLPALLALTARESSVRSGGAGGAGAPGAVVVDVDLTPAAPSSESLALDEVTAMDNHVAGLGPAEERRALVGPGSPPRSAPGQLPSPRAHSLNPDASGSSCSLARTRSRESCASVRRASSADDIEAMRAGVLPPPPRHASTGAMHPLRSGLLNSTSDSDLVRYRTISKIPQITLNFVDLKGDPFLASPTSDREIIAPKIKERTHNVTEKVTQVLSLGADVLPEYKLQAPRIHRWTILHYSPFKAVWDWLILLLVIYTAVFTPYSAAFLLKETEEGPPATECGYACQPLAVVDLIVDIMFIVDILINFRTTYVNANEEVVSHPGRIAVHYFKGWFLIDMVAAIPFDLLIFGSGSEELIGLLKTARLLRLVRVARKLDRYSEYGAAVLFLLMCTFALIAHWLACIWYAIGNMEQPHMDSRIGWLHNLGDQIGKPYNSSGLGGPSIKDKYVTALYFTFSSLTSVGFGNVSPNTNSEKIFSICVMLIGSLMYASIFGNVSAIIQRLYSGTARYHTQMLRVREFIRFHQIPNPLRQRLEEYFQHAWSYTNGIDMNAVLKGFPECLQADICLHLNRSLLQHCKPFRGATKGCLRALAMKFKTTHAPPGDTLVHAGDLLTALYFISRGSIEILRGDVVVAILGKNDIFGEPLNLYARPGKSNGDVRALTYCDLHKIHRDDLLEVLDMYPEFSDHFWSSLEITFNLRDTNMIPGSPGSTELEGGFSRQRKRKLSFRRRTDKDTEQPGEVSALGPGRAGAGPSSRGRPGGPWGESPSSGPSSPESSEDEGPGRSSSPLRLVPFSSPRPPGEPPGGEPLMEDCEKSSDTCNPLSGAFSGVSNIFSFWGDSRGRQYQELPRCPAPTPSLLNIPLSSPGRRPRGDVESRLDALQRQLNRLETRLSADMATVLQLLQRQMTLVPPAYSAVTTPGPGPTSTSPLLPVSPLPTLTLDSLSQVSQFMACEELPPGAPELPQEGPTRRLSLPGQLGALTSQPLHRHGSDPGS
structure (smiles),measurement,setting,value
C[C@H]1CCN1c1nc(N2CC[C@H](CCC(=O)O)C2)c2c(n1)C(F)(F)CC2,IC50,[1],> 30 µM
same,MRT last at 24 h,[2],4.15 h
same,IC50,[3],> 30 µM
same,IC50 at 2 h,in vitro [4],> 150 µM
same,"microsomal CLint at 2 h, 1 µM",in vitro [5],< 6.4 µL/min/mg
same,Drug metabolism,[6],Metabolite_Notdetected
same,activity at 30 µM,PXR,0.96%
same,Kp at 24 h,in vivo,9.9
same,bioavailability,[7],54.6%
same,IC50,Cytochrome P450 2D6,> 10 µM
same,Drug metabolism,[8],Metabolite_Notdetected
same,IC50,HepG2,196 nM
same,half-life,[9],306 min
